The values that follow come from patent publication US20110015119A1, “NOVEL SEMI-SYNTHETIC GLYCOPEPTIDES AS ANTIBACTERIAL AGENTS” (LEAD THERAPEUTICS, INC., priority 2009, published 2011).

SMILES strings stand for the structures. In brackets after ≈: the same amount, converted by molar mass. Like-named read-outs stand apart in the source and are kept apart here.

Type in all cases: cell-based
Assay [1] relates to Enterococcus faecium 752 (VRE, Van A). The experiment in a line: MIC by broth microdilution, EFcm 752. As to conditions: class symbols. The method in brief: (§1)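 Broth microdilution in Mueller-Hinton broth per NCCLS/CLSI procedure, with automated serial dilution and liquid transfer. Strains are clinical isolates sensitive or resistant to natural glycopeptides.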
(In general: In broth dilution the organism is exposed to a series of concentrations in liquid medium.)

The test system of assay [2] is Streptococcus pyogenes 712. The experiment in a line: MIC by broth microdilution, SPY 712. The gist of the method:
as §1

Assay [3] relates to Enterococcus faecalis 101 (ATCC 29212). The experiment in a line: MIC by broth microdilution, EFc 101. As to conditions: class symbols. The gist of the method: as §1
Assay [4] concerns Enterococcus faecalis 848 (VRE, Van A). Nature of the assay: MIC by broth microdilution, EFc 848. As to conditions: class symbols. The method in brief:
as §1

For assay [5], the system named is Staphylococcus aureus 2012 (VISA). The experiment in a line: MIC by broth microdilution, SA 2012. To be noted: class symbols. The method in brief: as §1
Assay [6] relates to Staphylococcus epidermidis 831 (MRSE). Nature of the assay: MIC by broth microdilution, SE 831. To be noted: read-out: MIC SE 831. The gist of the method: as §1
Assay [7] deals with Enterococcus faecium 800. The experiment in a line: MIC by broth microdilution, EFcm 800. The method in brief: as §1
Assay [8] relates to Staphylococcus aureus 100 (ATCC 29213). The experiment in a line: MIC by broth microdilution, SA 100. The gist of the method:
as §1

Assay [9] has as its system Staphylococcus aureus 757 (MRSA). The experiment in a line: MIC by broth microdilution, SA 757. As to conditions: read-out: MIC SA 757. The method in brief: as §1
Assay [10] deals with Staphylococcus epidermidis 835. Nature of the assay: MIC by broth microdilution, SE 835. The method in brief: as §1
Assay [11] concerns Streptococcus pneumoniae 1195 (ATCC 49619). The experiment in a line: MIC by broth microdilution, SPNE 1195. The method in brief:
as §1

The mark [12] stands for this setting: Enterococcus faecium, VRE, read-out: MIC E FCM 752, Enterococcus faecium 752 (VRE, Van A).
Where [13] appears, read: Streptococcus pyogenes, 712, read-out: MIC S PYO 712.
[14] abbreviates: Enterococcus faecalis, ATCC29212, read-out: MIC E FC 101, Enterococcus faecalis 101 (ATCC 29212).
The mark [15] stands for this setting: Enterococcus faecalis, VRE, read-out: MIC E FC 848, Enterococcus faecalis 848 (VRE, Van A).
Setting [16] is: Staphylococcus aureus, VISA, read-out: MIC SA 2012, Staphylococcus aureus 2012 (VISA).
Setting [17] is: Staphylococcus epidermidis, MRSE.
The mark [18] stands for this setting: Enterococcus faecium, 800, read-out: MIC E FCM 800.
The mark [19] stands for this setting: Staphylococcus aureus, ATCC29213, read-out: MIC SA 100.
Where [20] appears, read: Staphylococcus epidermidis, 835, read-out: MIC SE 835.
Setting [21] is: Streptococcus pneumoniae, ATCC49619, read-out: MIC S PNE 1195.

As to `CCCCCCc1ccc(S(=O)(=O)NCCCCCCNCc2c(O)cc3c(c2O)-c2cc(ccc2O)[C@H]2NC(=O)[C@@H]4NC(=O)[C@H](CC(N)=O)NC(=O)[C@H](NC(=O)[C@@H](CC(C)C)NC)[C@H](O)c5ccc(c(Cl)c5)Oc5cc4cc(c5O[C@@H]4O[C@H](CO)[C@@H](O)[C@H](O)[C@H]4O[C@H]4C[C@](C)(NC(N)=O)[C@H](OC(N)=O)[C@H](C)O4)Oc4ccc(cc4Cl)[C@@H](O)[C@H](NC2=O)C(=O)N[C@@H]3C(=O)O)cc1` (atropisomer, axis not shown) [Compound 370], the MIC – broadly, the smallest concentration in the dilution series that meets the test's criterion for growth inhibition – in [1] (Enterococcus faecium 752 (VRE, Van A), read-out: MIC E FCM 752) is 4 to 8 µg/mL (≈ 2.12 to 4.24 µM); in assay [2] (Streptococcus pyogenes 712, class symbols, read-out: MIC S PYO 712) it was 0.01 to 0.5 µg/mL (≈ 0.0053 to 0.265 µM); in assay [3] (ATCC29212, Enterococcus faecalis 101 (ATCC 29212), read-out: MIC E FC 101), 0.01 to 0.5 µg/mL (≈ 0.0053 to 0.265 µM); in assay [4] (Enterococcus faecalis 848 (VRE, Van A), read-out: MIC E FC 848) it was greater than 16 µg/mL; in assay [5] (Staphylococcus aureus 2012 (VISA), read-out: MIC SA 2012) it was 0.01 to 0.5 µg/mL (≈ 0.0053 to 0.265 µM); in [6] (Staphylococcus epidermidis 831 (MRSE), class symbols) it was 0.01 to 0.5 µg/mL (≈ 0.0053 to 0.265 µM). In addition, the MIC in [7] (Enterococcus faecium 800, class symbols, read-out: MIC E FCM 800) lay within 0.01 to 0.5 µg/mL (≈ 0.0053 to 0.265 µM); in assay [8] (ATCC29213, Staphylococcus aureus 100 (ATCC 29213), class symbols, read-out: MIC SA 100) it was 0.01 to 0.5 µg/mL (≈ 0.0053 to 0.265 µM); in assay [9] (Staphylococcus aureus 757 (MRSA), class symbols) it was 0.01 to 0.5 µg/mL (≈ 0.0053 to 0.265 µM); in assay [10] (Staphylococcus epidermidis 835, class symbols, read-out: MIC SE 835), 0.01 to 0.5 µg/mL (≈ 0.0053 to 0.265 µM); in assay [11] (ATCC49619, Streptococcus pneumoniae 1195 (ATCC 49619), class symbols, read-out: MIC S PNE 1195), 0.01 to 0.5 µg/mL (≈ 0.0053 to 0.265 µM).

Consider `CCCCCCCCNC(=O)Oc1cc(O)c2c(c1)[C@@H](C(=O)NC1C3CC4CC(C3)CC1C4)NC(=O)[C@H]1NC(=O)[C@H](NC(=O)[C@@H]3NC(=O)[C@H](CC(N)=O)NC(=O)[C@H](NC(=O)[C@@H](CC(C)C)NC)[C@H](O)c4ccc(c(Cl)c4)Oc4cc3cc(c4OC3OC(CO)C(O)C(O)C3OC3CC(C)(N)C(O)C(C)O3)Oc3ccc(cc3Cl)[C@H]1O)c1ccc(O)c-2c1` (some centres unmarked) [Compound 33], for which the MIC in [1] (setting [12]) was in the range of 0.5 to 1 µg/mL (≈ 0.288 to 0.575 µM); in assay [2] (setting [13]), 0.01 to 0.5 µg/mL (≈ 0.00575 to 0.288 µM); in [3] (setting [14]), 0.01 to 0.5 µg/mL (≈ 0.00575 to 0.288 µM); in assay [4] (setting [15]) it was 2 to 4 µg/mL (≈ 1.15 to 2.3 µM); in [5] (setting [16]) it was 0.5 to 1 µg/mL (≈ 0.288 to 0.575 µM); in assay [6] (setting [17]), 0.01 to 0.5 µg/mL (≈ 0.00575 to 0.288 µM). The minimal inhibitory concentration (MIC) in assay [7] (setting [18]) lay within 0.01 to 0.5 µg/mL (≈ 0.00575 to 0.288 µM); in assay [8] (setting [19]), 0.01 to 0.5 µg/mL (≈ 0.00575 to 0.288 µM); in assay [9] (Staphylococcus aureus, MRSA), 0.01 to 0.5 µg/mL (≈ 0.00575 to 0.288 µM); in [10] (setting [20]), 0.01 to 0.5 µg/mL (≈ 0.00575 to 0.288 µM); in assay [11] (setting [21]), 0.01 to 0.5 µg/mL (≈ 0.00575 to 0.288 µM).

Consider `CCCCCCCC(C)NC(=O)Oc1cc(O)c2c(c1)[C@@H](C(=O)NC1C3CC4CC(C3)CC1C4)NC(=O)[C@H]1NC(=O)[C@H](NC(=O)[C@@H]3NC(=O)[C@H](CC(N)=O)NC(=O)[C@H](NC(=O)[C@@H](CC(C)C)NC)[C@H](O)c4ccc(c(Cl)c4)Oc4cc3cc(c4O[C@@H]3O[C@H](CO)[C@@H](O)[C@H](O)[C@H]3O[C@H]3C[C@](C)(N)[C@H](O)[C@H](C)O3)Oc3ccc(cc3Cl)[C@H]1O)c1ccc(O)c-2c1` (some centres unmarked) [Compound 312], for which the MIC in assay [1] (setting [12]) is 0.5 to 1 µg/mL (≈ 0.285 to 0.571 µM); in [2] (setting [13]), 0.01 to 0.5 µg/mL (≈ 0.00571 to 0.285 µM); in assay [3] (setting [14]), 0.01 to 0.5 µg/mL (≈ 0.00571 to 0.285 µM); in [4] (setting [15]), greater than 16 µg/mL; in [5] (setting [16]) it was greater than 16 µg/mL; in assay [6] (setting [17]), 0.01 to 0.5 µg/mL (≈ 0.00571 to 0.285 µM). Further, the MIC in [7] (setting [18]) was in the range of 0.01 to 0.5 µg/mL (≈ 0.00571 to 0.285 µM); in [8] (setting [19]), 0.01 to 0.5 µg/mL (≈ 0.00571 to 0.285 µM); in [9] (Staphylococcus aureus, MRSA), 0.01 to 0.5 µg/mL (≈ 0.00571 to 0.285 µM); in assay [10] (setting [20]), 0.5 to 1 µg/mL (≈ 0.285 to 0.571 µM); in assay [11] (setting [21]), 0.01 to 0.5 µg/mL (≈ 0.00571 to 0.285 µM).

As for `CCCCCOc1ccc(S(=O)(=O)NCCCCCCNC(=O)Oc2cc(O)c3c(c2)[C@@H](C(=O)NC2C4CC5CC(C4)CC2C5)NC(=O)[C@H]2NC(=O)[C@H](NC(=O)[C@@H]4NC(=O)[C@H](CC(N)=O)NC(=O)[C@H](NC(=O)[C@@H](CC(C)C)NC)[C@H](O)c5ccc(c(Cl)c5)Oc5cc4cc(c5O[C@@H]4O[C@H](CO)[C@@H](O)[C@H](O)[C@H]4O[C@H]4C[C@](C)(N)[C@H](O)[C@H](C)O4)Oc4ccc(cc4Cl)[C@H]2O)c2ccc(O)c-3c2)cc1` (some centres unmarked) [Compound 317], the MIC was in the range of 1 to 2 µg/mL (≈ 0.513 to 1.03 µM) in assay [1] (setting [12]); 0.01 to 0.5 µg/mL (≈ 0.00513 to 0.256 µM) in assay [2] (setting [13]); 1 to 2 µg/mL (≈ 0.513 to 1.03 µM) in assay [3] (setting [14]); 8 to 16 µg/mL (≈ 4.1 to 8.2 µM) in [4] (setting [15]); 8 to 16 µg/mL (≈ 4.1 to 8.2 µM) in assay [5] (setting [16]); 1 to 2 µg/mL (≈ 0.513 to 1.03 µM) in [6] (setting [17]). In addition, the MIC in [7] (setting [18]) lay within 0.01 to 0.5 µg/mL (≈ 0.00513 to 0.256 µM); in [8] (setting [19]), 1 to 2 µg/mL (≈ 0.513 to 1.03 µM); in assay [9] (Staphylococcus aureus, MRSA) it was 0.5 to 1 µg/mL (≈ 0.256 to 0.513 µM); in assay [10] (setting [20]), 2 to 4 µg/mL (≈ 1.03 to 2.05 µM); in assay [11] (setting [21]) it was 0.01 to 0.5 µg/mL (≈ 0.00513 to 0.256 µM).
